Measured values taken from patent US20080249061A1, “Photostable Pharmaceutical Composition Containing Brivudine for the Treatment of Herpetic Keratitis” (priority 2005, published 2008).
Where “and” joins values, the source holds several entries; their conditions need not be identical. Equal entries are not always repeated.

Tests used:
[1] = Photostability test (SUNTEST CPS+, 320-800 nm); assay type: physicochemical; settings: after irradiation of one hour, no film former contained
Procedure: The photo stability tests themselves have been performed using a SUNTEST CPS+ instrument of the company Atlas. The applied irradiation energy is indicated below: • Irradiation energy (time): 1.3 J/cm^2 (10 min), 2.6 J/cm^2 (20 min), 4.0 J/cm^2 (30 min), 8.9 J/cm^2 (67 min), 26.7 J/cm^2 (201 min) • Wave length range: 320-800 nm

[2] = additional studies on drug product-tolerability; assay type: in vivo
Source text: Formulations based on film formers are commonly used as artificial tear drops. They are approved since decades without any general or special adverse effects published.

clinical VZV strains = settings: 13 clinical VZV strains; cited from earlier work
clinical HSV-1 strains = settings: panel of 23 clinical HSV-1 strains; cited from earlier work
[3] = intra ocular bioavailability study in rabbit
[4] = tested on: clinical isolates (HSV-1); settings: panel of 20 clinical isolates, two similar assays; cited from earlier work

| SMILES | starting amount of brivudine recovered [1] | influence of brivudine on the drug product-tolerability ([2]; formulations based on film formers) | systemic absorption in the blood ([2]; in vivo) | time brivudine remains in the ocular region ([2]; ocular region, other: ophthalmic (topical ocular)) | mean IC50 (clinical VZV strains) | mean IC50 (clinical HSV-1 strains) | active in blood [3] | presence of the active substance in the cornea [3] | mean IC50 [4] |
| --- | --- | --- | --- | --- | --- | --- | --- | --- | --- |
| O=c1[nH]c(=O)n([C@H]2C[C@H](O)[C@@H](CO)O2)cc1/C=C/Br [brivudine, (E)-5-(2-bromovinyl)-2′-deoxyuridine] | 33.4% | no deterioration of the pharmaceutical properties was observed | without systemic absorption in the blood | more than 2 hours | 0.001 µg/mL | 0.52 µg/mL | never found in blood | ≥ 6 h | – |
| Nc1nc2c(ncn2COCCO)c(=O)[nH]1 [acyclovir] | – | – | – | – | 0.2 µg/mL | 0.92 µg/mL | – | – | – |
| Nc1nc2c(ncn2CCC(CO)CO)c(=O)[nH]1 [penciclovir] | – | – | – | – | 0.91 µg/mL | – | – | – | 0.6 µg/mL and 0.8 µg/mL |
